This note sets out measurements from patent US20260234165A1, “MACROCYCLIC COMPOUNDS, PREPARATION METHOD THEREFOR, AND USE THEREOF” (GENFLEET THERAPEUTICS (SHANGHAI) INC., priority 2004, published 2026).

The structures appear in SMILES notation. Like-named read-outs stand apart in the source and are kept apart here.

In test [1] the test system is NCI-H441 cells. Kind of test: 3D cell proliferation assay (CellTiter Glo-3D), NCI-H441. It is filed as cell-based, human. The settings on record: medium with 2% FBS, read-out: H441 AP IC50. A digest of the protocol:
(§1)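 Cells seeded at 800 per well in medium with 2% FBS, treated next day with 3.16-fold dilution series (0.1% DMSO) for 5 days at 37°C. Viability by CellTiter-Glo 3D luminescence; inhibition normalised to DMSO and cell-free controls, IC50 by four-parameter fit.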
On the technique in general: In ATP-based viability assays light output follows the ATP content of the culture.

In test [2] the test system is AsPC-1 cells (KRAS G12D mutation). The test can be described thus: 3D cell proliferation assay (CellTiter Glo-3D), AsPC-1. The test is classed as cell-based, human. Particulars: medium with 2% FBS, read-out: AsPC-1 AP IC50. A digest of the protocol: as §1
The mark [3] stands for this setting: Homo sapiens, NCI-H441, 3D cell proliferation (CellTiter Glo-3D).
The mark [4] stands for this setting: Homo sapiens, ASPC1, 3D cell proliferation (CellTiter Glo-3D).
The mark [5] stands for this setting: 3D cell proliferation (CellTiter Glo-3D).

For `CCn1c(-c2cc(C#CCN3CCCN(C)CC3)cnc2[C@H](C)OC)c2c3cc(ccc31)-c1csc(n1)C[C@H](NC(=O)[C@H]1[C@H](C)[C@@H]1C)C(=O)N1CCC[C@H](N1)C(=O)OCC(C)(C)C2` (atropisomer, axis not shown; (Ra)) [Compound Z802, (1r,2R,3S)—N-((6^3S,4S,Z)-1^2-(5-(3-(4-methyl-1,4-diaza-1-yl)prop-1-yn-1-yl)-(Ra)-2-((S)-1-methoxyethyl)pyridin-3-yl)-1^1-ethyl-10,10-dimethyl-5,7-dioxo-6^1,6^2,6^3,6^4,6^5,6^6-hexahydro-1^1H-8-oxa-2(4,2)-thiazola-1(5,3)-indola-6(1,3)-pyridazinacycloundecaphane-4-yl)-2,3-dimethylcyclopropane-1-carboxamide], the IC50 – broadly, the concentration that inhibits the measured activity by half – in test [1] (setting [3]) stood at 0.26 nM; in test [2] (setting [4]) it was 0.34 nM.
The matching figures for `CCn1c(-c2cc(C#CCN3CCC(C(F)(F)F)CC3)cnc2[C@H](C)OC)c2c3cc(ccc31)-c1csc(n1)C[C@H](NC(=O)[C@H]1[C@H](C)[C@@H]1C)C(=O)N1CCC[C@H](N1)C(=O)OCC(C)(C)C2` (atropisomer, axis not shown; (Ra)) [Compound Z778]: 1.14 nM and 2.39 nM.
Take `CCn1c(-c2cc(C#CCN3CCOC[C@H]3C)cnc2[C@H](C)OC)c2c3cc(ccc31)-c1csc(n1)C[C@H](NC(=O)[C@H]1[C@H](C)[C@@H]1C)C(=O)N1CCCC(N1)C(=O)OCC(C)(C)C2` (atropisomer, axis not shown; (Ra)) [Compound Z813]: the IC50 was 0.15 nM in test [1] (setting [5]) and 0.18 nM in test [2] (setting [5]).
For `CCn1c(-c2cc(C#CCN3C4CCC3COC4)cnc2[C@H](C)OC)c2c3cc(ccc31)-c1csc(n1)C[C@H](NC(=O)[C@H]1[C@H](C)[C@@H]1C)C(=O)N1CCC[C@H](N1)C(=O)OCC(C)(C)C2` (atropisomer, axis not shown; (Ra)) [Compound Z711, (1r,2R,3S)—N-((6^3S,4S,Z)—(Ra)-1^2-(5-(3-(3-oxa-8-azabicyclo[3.2.1]octan-8-yl)prop-1-yn-1-yl)-2-((S)-1-methoxyethyl)pyridin-3-yl)-1^1-ethyl-10,10-dimethyl-5,7-dioxo-6^1,6^2,6^3,6^4,6^5,6^6-hexahydro-1^1H-8-oxa-2(4,2)-thiazola-1(5,3)-indola-6(1,3)-pyridazinacycloundecaphane-4-yl)-2,3-dimethylcyclopropane-1-carboxamide], in that order: 0.27 nM and 0.3 nM.
In the case of `CCn1c(-c2cc(C#C[C@@H]3COCCN3C)cnc2[C@H](C)OC)c2c3cc(ccc31)-c1csc(n1)C[C@H](NC(=O)[C@H]1[C@H](C)[C@@H]1C)C(=O)N1CCC[C@H](N1)C(=O)OCC(C)(C)C2` (atropisomer, axis not shown; (Ra)) [Compound Z672, (1r,2R,3S)—N-((6^3S,4S,Z)-1^1-ethyl-(Ra)-1^2-(2-((S)-1-methoxyethyl)-5-(((R)-4-methylmorpholin-3-yl)ethynyl)pyridin-3-yl)-10,10-dimethyl-5,7-dioxo-6^1,6^2,6^3,6^4,6^5,6^6hexahydro-1^1H-8-oxa-2(4,2)-thiazola-1(5,3)-indola-6(1,3)-pyridazinacycloundecaphane-4-yl)-2,3-dimethylcyclopropane-1-carboxamide], the results for the IC50 in test [1] (setting [3]) and in test [2] (setting [4]) were 0.3 nM and 0.73 nM, respectively.
In the case of `CCn1c(-c2cc(C#CCN3CCCOCC3)cnc2C(C)C)c2c3cc(ccc31)-c1csc(n1)C[C@H](NC(=O)[C@H]1[C@H](C)[C@@H]1C)C(=O)N1CCC[C@H](N1)C(=O)OCC(C)(C)C2` (atropisomer, axis not shown; (Sa)) [Compound Z811-2, (1r,2R,3S)—N-((6^3S,4S,Z)—(Sa)-1-(5-(3-(1,4-oxazepan-4-yl)prop-1-yn-1-yl)-2-isopropylpyridin-3-yl)-1^1-ethyl-10,10-dimethyl-5,7-dioxo-6^1,6^2,6^3,6^4,6^5,6^6-hexahydro-1^1H-8-oxa-2(4,2)-thiazola-1(5,3)-indola-6(1,3)-pyridazinacycloundecaphane-4-yl)-2,3-dimethylcyclopropane-1-carboxamide], the IC50 in test [1] (setting [5]) is 0.63 nM; in test [2] (setting [5]), 1.41 nM.
